In patent US7291601B1, “Arginine-rich anti-vascular endothelial growth factor peptides that inhibit growth and metastasis of human tumor cells by blocking angiogenesis” (Korea Greencross Corp., priority 1999, dated 2007):
pKd: −log10 of the molar value.

Columns and labels:
VEGF = target: T1, VEGF (Homo sapiens, UniProt P15692); assay: 125I-labeled VEGF association with peptides fixed on ELISA plate, competition; type: binding; settings: determined from IC50: KD=IC50−[non-labeled Competitor]; fixed peptide 100 ng/well; read-out: dissociation constant (KD) between VEGF and peptide
T1 sequence (P15692 27-191 isoform P15692-4): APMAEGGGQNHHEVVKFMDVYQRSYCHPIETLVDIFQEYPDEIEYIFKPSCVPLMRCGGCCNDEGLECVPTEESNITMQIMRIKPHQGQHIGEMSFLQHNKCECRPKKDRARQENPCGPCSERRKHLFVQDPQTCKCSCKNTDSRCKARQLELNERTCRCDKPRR
Description: To verify the postulated mechanism in which the screened peptides might be associated directly with VEGF so as to inhibit VEGF from binding to its receptors present on the surface of vascular endothelial cells, the following experiments were conducted. Each of the hexa-peptides was fixed on a 96-well ELISA plate at a concentration of 100 ng/well in such a manner that a 20% acetic acid solution containing each peptide was dried in air. The plate was treated three times with a phosphate buffered saline containing 0.1% albumin for 3 min each time. A solution of ^125I-labeled VEGF in the same phosphate buffered saline was added to the plate at a concentration of 0.2 ng/well and incubated at 37° C. for 1 hour to associate the labeled VEGF with the peptides. To remove the […] remaining unassociated, the plate washed four times with the same phosphate buffered saline for 3 min per each time, followed by measuring radioactivity with the aid of a γ-counter. As for the non-specific binding, it was determined by incubation in the presence of either a mixture of the labeled VEGF and non-labeled VEGF or a mixture of the fixed peptide and unfixed peptide in a molar ratio of 1:100. This was set as a negative control.
With reference to FIG. 7, radioactivity measured from ^125I-labeled VEGF associated with fixed peptides is plotted versus molar ratios of a competitor, such as non-labeled VEGF or free peptides, to its counterpart. […] The dissociation constant (KD) between VEGF and each peptide was determined using the IC50) value according to the following formula (De Blasi, A. et al., Trends Pharmacol. Sci., 10, 227 (1989)). KD=IC50−[non-labeled Competitor]

[1] = system: HT1080 (human fibrosarcoma); assay: Egg CAM assay, angiogenesis induced by VEGF-secreting cancer cells; type: in vivo; settings: for effect on angiogenesis induced by VEGF secreted from human cancer cells: FIG. 12; for Angiogenic activity eggs/total eggs / Angiogenic activity(%): egg CAM, 10^5 HT1080 cells/egg with 0.1 μg peptide; for Angiogenic activity(%): (standard deviation)
Description: An experiment using egg CAM was carried out to confirm the inhibitory activity of the screened peptides against the angiogenesis induced by cancer cells, which secrete VEGF. Fertilized eggs were deprived of albumin and windows were formed on the eggs as in above. 10^5 cells of HT1080 (human fibrosarcoma) were mixed with 7.5 μg of Type I collagen (rat tail, Beckton Dickinson, USA) within a volume of 5 μl and dropped onto ¼ fraction pieces of Thermanox coverslips to give collagen sponges. After being covered with the collagen sponges, 10-day embryonic egg CAM was incubated at 37° C. for 3 days. Blood vessels induced by the cancer cells were observed and photographed as in above (see Table 6 and FIG. 12).

[2] = Acute toxicity test on rat upon non-oral administration; type: in vivo; settings: 1 mg/kg, intramuscular injection; for LD50: rat, in vivo, im, SD rats, read-out: lethal dose (LD50)
Description: Using specific pathogen-free (SPF) SD rats which were six weeks old, the peptides of Sequences 1, 2, and 3 were tested for acute toxicity. Suspensions of the peptides in 1 ml of PBS were administered at a dose of 1 mg/kg to the rats, which were grouped in twos, by intramuscular injection. […] An autopsy was made of the rats with the naked eye to observe whether their abdominal and thoracic organs were damaged. Neither sudden death nor noticeable clinical symptoms were detected in any of the animals administered with the peptides of interest.

VEGF8-121 = target: T2, VEGF8-121 (Homo sapiens, UniProt P15692); assay: Inhibition of labeled VEGF8-121 binding to its receptors; settings: FIG. 9
T2 construct: made in house; host or cells: E. coli BL21(DE3)pLysS, inclusion bodies
T2 sequence (P15692 34-147 isoform P15692-9): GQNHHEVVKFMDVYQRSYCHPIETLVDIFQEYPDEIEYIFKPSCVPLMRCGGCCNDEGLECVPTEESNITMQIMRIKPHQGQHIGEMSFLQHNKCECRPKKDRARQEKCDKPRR
Excerpt: (§1) In order to verify this postulation, Sequence 1 (RRKRRR) was examined for the common binding domain on VEGF because it inhibited the binding of VEGF to its receptors at the highest efficiency. First, appropriate primers were synthesized and used to amplify various cDNAs coding for VEGF165, VEGF121, VEFG8-121, VEGF109, and VEGF8-109 while a human liver cDNA library (Clontech) served as a template. After being inserted to plasmid pRSET A (Invitrogen), the cDNAs were sequenced. The resulting five pRSET A vectors, each having one of the five cDNAs, were introduced into an expression strain (BL21(DE3)pLysS) containing T7 RNA polymerase. […] The purified VEGFs were quantified by use of a protein assay reagent (Bio-Rad) and all found to bind to VEGF receptors and exert growth hormone activity on HUVEC. […] For use, each labeled protein was quantified by ELISA (enzyme-linked immunosorbent assay) using a mouse monoclonal anti-VEGF antibody (R&D systems).
(§2) Each peptide was examined for antagonistic activity against VEGF in the same manner as in Example 2. Referring to FIG. 9, the radioactivity measured from ^125I-labeled VEGF associated with fixed Sequence 1 (RRKRRR) (SEQ ID NO: 1) is plotted in the absence of competitors and in the presence of competitors for various VEGF isomers. […]

VEGF8-109 = target: T3, VEGF8-109 (Homo sapiens, UniProt P15692); assay: Inhibition of labeled VEGF8-109 binding to its receptors; settings: FIG. 9
T3 construct: made in house; host or cells: E. coli BL21(DE3)pLysS, inclusion bodies
T3 sequence (P15692 214-315): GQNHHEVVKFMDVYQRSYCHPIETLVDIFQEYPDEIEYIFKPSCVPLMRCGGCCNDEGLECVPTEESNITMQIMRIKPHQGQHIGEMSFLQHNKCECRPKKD
Excerpt: as §1, §2

[3] = system: HM7 (human colon carcinoma cell line); assay: Subcutaneous HM7 tumor growth in athymic nude mice; type: in vivo; settings: after 15 days of subcutaneous injection
Description: From the next day, a solution of each peptide in PBS (0.5 μg/100 μl/day) was subcutaneously injected to the mice for 15 days. Sizes of the tumors thus formed were periodically measured while tumor volumes were calculated according to the following formula: Tumor Size=0.5×(Diameter)^2×length

Compound	pKd (VEGF)	effect on angiogenesis induced by VEGF secreted from human cancer cells [1]	Angiogenic activity eggs/total eggs [1]	Angiogenic activity(%) [1]	toxic changes to the rats [2]	LD50 [2]	inhibition of binding of VEGF8-121 to its receptors (VEGF8-121)	inhibition of binding of VEGF8-109 to its receptors (VEGF8-109)	effect on tumor size / growth of human colon carcinoma cells in mice [3]	decrease of tumor size compared to the control (PBS) ([3]; 0.5 μg/100 μl/day)
N=C(N)NCCC[C@H](NC(=O)[C@H](CCCNC(=N)N)NC(=O)[C@H](CCCNC(=N)N)NC(=O)[C@H](CCCNC(=N)N)NC(=O)[C@H](CCCNC(=N)N)NC(=O)[C@@H](N)CCCNC(=N)N)C(N)=O [compound 11, NH2-Arg-Arg-Arg-Arg-Arg-Arg-CONH2]	4.66	inhibitory effect	10/24	41.0(7.1) %	no toxic changes	≥ 1 mg/kg	–	–	–	–
H-RRKRRR-NH2 [compound 8, NH2-Arg-Arg-Lys-Arg-Arg-Arg-CONH2]	5.30	inhibitory effect	8/22	36.0(8.5) %	no toxic changes	≥ 1 mg/kg	not inhibited	not inhibited	effectively inhibits the growth of human colon carcinoma cells in mice	about 28%
H-RKKRKR-NH2 [compound 1, NH2-Arg-Lys-Lys-Arg-Lys-Arg-CONH2]	5.70	inhibitory effect	10/23	43.0(9.9) %	no toxic changes	≥ 1 mg/kg	–	–	–	–
